Experimental data from patent US7268128B2, “1,3,5-trisubstituted-5-phenyl and 5-pyridyl pyrazolopyrimidinone derivatives having PDE7 inhibiting action” (Ausbio Pharma Co., Ltd., priority 2001, dated 2007).
pIC50: −log10 of the molar value. Structures can show the parent of a compound that is named as a salt.

molecular target: T1, PDE7 (type VII phosphodiesterase) (Homo sapiens, UniProt Q13946); experiment: PDE7 inhibiting activity (3H-cAMP hydrolysis, active fraction from MOLT-4 cells); format: biochemical; details: PDE7 fraction from MOLT-4 cells, 0.064 μM cAMP, 10 μM rolipram present, 2 hours at 25° C.; read-out: IC50 values for phosphodiesterase inhibiting activities (PDE7)
T1 construct: endogenous in cells; host or cells: MOLT-4 (ATCC CRL-1582), soluble fraction, HiTrapQ anion-exchange fraction
Protocol: To evaluate the compounds of the present invention for the ability to suppress PDE7 (type VII phosphodiesterase), the method of Biochemical Pharmacol. 48(6), 1219-1223 (1994) was partially modified to perform the following assay:
1) PDE7 (type VII phosphodiesterase) active fraction was obtained. That is, human acute lymphoblastoid lymphoma T cell strain MOLT-4 (purchasable from ATCC under ATCC No. CRL-1582) was cultured in RPMI1640 medium containing 10% fetal bovine serum to obtain 5×10^8 MOLT4 cells. The cells were harvested by centrifugation, and suspended in 10 ml of buffer A (25 mM tris-HCl, 5 mM 2-mercaptoethanol, 2 mM benzamidine, 2 mM EDTA, 0.1 mM 4-(2-aminoethyl)benzenesulfonyl hydrochloride, pH 7=7.5). The cells were homogenized in a Polytoron homogenizer, and centrifuged (4° C., 25,000 G, 10 min). The supernatant was further ultracentrifuged (4° C., 100,000 G, 60 min), and the resulting supernatant was filtered through a 0.2 μm filter to obtain a soluble fraction.
2) HiTrapQ column (5 ml×2) equilibrated with buffer A was charged with the resulting soluble fraction. Phosphodiesterase was eluted using 300 ml of buffer A containing a linear gradient solution of 0 to 0.8M sodium chloride to collect sixty 5 ml fractions. Each fraction was tested for cAMP metabolizing phosphodiesterase activity.
3) The test compounds at desired concentrations were each reacted for 2 hours at 25° C. in a reactant mixture containing 20 mM tris-HCl (pH 7.5), 1 mM MgCl2, 100 μM EDTA, 330 μg/ml bovine serum albumin, 4 μg/ml 5′-nucleotidase, 0.1 μCi^3H-cAMP (0.064 μM cAMP), 10 μM rolipram, and the type VII phosphodiesterase stored solution. QAE-Sephadex suspended in 10 mM HEPES-Na (pH 7.0) was added to the reaction mixture, and the mixture was allowed to stand for 5 minutes. Then, the supernatant was recovered, and QAE-Sephadex was further added, followed by allowing the mixture to stand for 5 minutes. Then, the resulting supernatant was measure for radioactivity.
4) IC50, as the concentration of the test compound that inhibited 50% of the metabolic activity of PDE7, was calculated for each of the compounds.

T1 sequence (Q13946 whole entry): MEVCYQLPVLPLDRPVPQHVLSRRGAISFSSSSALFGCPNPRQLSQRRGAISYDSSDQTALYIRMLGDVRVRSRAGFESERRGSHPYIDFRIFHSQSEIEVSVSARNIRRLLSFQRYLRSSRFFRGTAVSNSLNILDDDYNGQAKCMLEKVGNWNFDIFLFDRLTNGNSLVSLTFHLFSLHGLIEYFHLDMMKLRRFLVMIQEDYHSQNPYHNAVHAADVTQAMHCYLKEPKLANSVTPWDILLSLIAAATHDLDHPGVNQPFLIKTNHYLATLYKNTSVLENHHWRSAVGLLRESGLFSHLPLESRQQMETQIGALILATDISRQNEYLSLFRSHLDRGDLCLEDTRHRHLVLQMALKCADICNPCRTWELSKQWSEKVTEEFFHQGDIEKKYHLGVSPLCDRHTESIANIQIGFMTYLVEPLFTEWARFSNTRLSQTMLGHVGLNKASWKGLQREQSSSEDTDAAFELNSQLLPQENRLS

Row | Structure (SMILES) | pIC50
1 | CCOc1cc(N2CCC(NC)CC2)ccc1-c1nc2c(c(C3CCCCC3)nn2C)c(=O)[nH]1 [Example 90, 3-Cyclohexyl-6-{2-ethoxy-4-[4-(methylamino)-1-piperidinyl]phenyl}-1-methyl-1,5-dihydro-4H-pyrazolo[3,4-d]pyrimidin-4-one monomethanesulfonate] | ≥ 8.00
2 | CNC1CCN(c2ccc(-c3nc4c(C)nn(C5CCCCC5)c4c(=O)[nH]3)c(OC)c2)CC1 [Example 92, 1-Cyclohexyl-5-{2-methoxy-4-[4-(methylamino)-1-piperidinyl]phenyl}-3-methyl-1,6-dihydro-7H-pyrazolo[4,3-d]pyrimidin-7-one] | ≥ 8.00
3 | CNC1CCN(c2ccc(-c3nc4c(c(C5CCCCCC5)nn4C)c(=O)[nH]3)c(OC)c2)CC1 [Example 95, 3-Cycloheptyl-6-{2-methoxy-4-[4-(methylamino)-1-piperidinyl]phenyl}-1-methyl-1,5-dihydro-4H-pyrazolo[3,4-d]pyrimidin-4-one monomethanesulfonate] | ≥ 8.00
4 | CCNC1CCN(c2ccc(-c3nc4c(c(C5CCCCC5)nn4C)c(=O)[nH]3)c(OC)c2)CC1 [Example 97, 3-Cyclohexyl-6-{2-methoxy-4-[4-(ethylamino)-1-piperidinyl]phenyl}-1-methyl-1,5-dihydro-4H-pyrazolo[3,4-d]pyrimidin-4-one] | ≥ 8.00
5 | CCNC1CCN(c2ccc(-c3nc4c(C)nn(C5CCCCC5)c4c(=O)[nH]3)c(OC)c2)CC1 [Example 99, 1-Cyclohexyl-5-{2-methoxy-4-[4-(ethylamino)-1-piperidinyl]phenyl}-3-methyl-1,6-dihydro-7H-pyrazolo[4,3-d]pyrimidin-7-one] | ≥ 6.00
6 | CNCCN(C)c1ccc(-c2nc3c(C)nn(C4CCCCC4)c3c(=O)[nH]2)c(OC)c1 [Example 103, 1-Cyclohexyl-5-(2-methoxy-4-{methyl[2-(methylamino)ethyl]amino}phenyl)-3-methyl-1,6-dihydro-7H-pyrazolo[4,3-d]pyrimidin-7-one monofumarate] | ≥ 8.00
7 | COc1cc(N(C)CCO)ccc1-c1nc2c(C)nn(C3CCCCC3)c2c(=O)[nH]1 [Example 107, 1-Cyclohexyl-5-{4-[(2-hydroxyethyl)(methyl)amino]-2-methoxyphenyl}-3-methyl-1,6-dihydro-7H-pyrazolo[4,3-d]pyrimidin-7-one] | ≥ 8.00
8 | COc1cc(N2CCC(CO)CC2)ccc1-c1nc2c(C)nn(C3CCCCC3)c2c(=O)[nH]1 [Example 109, 1-Cyclohexyl-5-{4-[4-(hydroxymethyl)-1-piperidinyl]-2-methoxyphenyl}-3-methyl-1,6-dihydro-7H-pyrazolo[4,3-d]pyrimidin-7-one] | ≥ 8.00
9 | CNCCCN(C)c1ccc(-c2nc3c(C)nn(C4CCCCC4)c3c(=O)[nH]2)c(OC)c1 [Example 111, 1-Cyclohexyl-5-(2-methoxy-4-{methyl[3-(methylamino)propyl]amino}phenyl)-3-methyl-1,6-dihydro-7H-pyrazolo[4,3-d]pyrimidin-7-one monofumarate] | ≥ 8.00
10 | COc1cc(N2CCCN(C)CC2)ccc1-c1nc2c(C)nn(C3CCCCC3)c2c(=O)[nH]1 [Example 112, 1-Cyclohexyl-5-[2-methoxy-4-(4-methyl-1,4-diazepan-1-yl)phenyl]-3-methyl-1,6-dihydro-7H-pyrazolo[4,3-d]pyrimidin-7-one] | ≥ 6.00
11 | CCN(CCO)c1ccc(-c2nc3c(C)nn(C4CCCCC4)c3c(=O)[nH]2)c(OC)c1 [Example 115, 1-Cyclohexyl-5-{4-[(2-hydroxyethyl)(ethyl)amino]-2-methoxyphenyl}-3-methyl-1,6-dihydro-7H-pyrazolo[4,3-d]pyrimidin-7-one monohydrochloride] | ≥ 6.00
12 | CCOc1cc(NCCOC)ccc1-c1nc2c(c(C3CCCCC3)nn2C)c(=O)[nH]1 [Example 117, 3-Cyclohexyl-6-{2-ethoxy-4-[(2-methoxyethyl)amino]phenyl}-1-methyl-1,5-dihydro-4H-pyrazolo[3,4-d]pyrimidin-4-one] | ≥ 8.00
13 | COc1cc(N2CCC(N(C)C=O)CC2)ccc1-c1nc2c(C)nn(C3CCCCC3)c2c(=O)[nH]1 [Example 118, 1-[4-(1-Cyclohexyl-3-methyl-7-oxo-6,7-dihydro-1H-pyrazolo[4,3-d]pyrimidin-5-yl)-3-methoxyphenyl]-4-piperidiny(methyl)formamide] | ≥ 6.00
14 | COc1cc(N2CCC(N(C)C(C)=O)CC2)ccc1-c1nc2c(C)nn(C3CCCCC3)c2c(=O)[nH]1 [Example 119, N-{1-[4-(1-cyclohexyl-3-methyl-7-oxo-6,7-dihydro-1H-pyrazolo[4,3-d]pyrimidin-5-yl)-3-methoxyphenyl]-4-piperidiny}-N-methylacetamide] | ≥ 6.00
15 | CCOc1cc(N2CCC(NC)CC2)ccc1-c1nc2c(C)nn(C3CCCCC3)c2c(=O)[nH]1 [Example 121, 1-Cyclohexyl-5-{2-ethoxy-4-[4-(methylamino)-1-piperidinyl]phenyl}-3-methyl-1,6-dihydro-7H-pyrazolo[4,3-d]pyrimidin-7-one] | ≥ 8.00
16 | COc1cc(C2=CCN(C)CC2)ccc1-c1nc2c(C)nn(C3CCCCC3)c2c(=O)[nH]1 [Example 123, 1-Cyclohexyl-5-[2-methoxy-4-(1-methyl-1,2,3,6-tetrahydro-4-pyridinyl)phenyl]-3-methyl-1,6-dihydro-7H-pyrazolo[4,3-d]pyrimidin-7-one] | ≥ 6.00
17 | COc1cc(C2CCN(C)CC2)ccc1-c1nc2c(C)nn(C3CCCCC3)c2c(=O)[nH]1 [Example 124, 1-Cyclohexyl-5-[2-methoxy-4-(1-methyl-4-piperidinyl)phenyl]-3-methyl-1,6-dihydro-7H-pyrazolo[4,3-d]pyrimidin-7-one] | ≥ 6.00
18 | COc1cc(N2CCCNCC2)ccc1-c1nc2c(C)nn(C3CCCCC3)c2c(=O)[nH]1 [Example 125, 1-Cyclohexyl-5-[4-(1,4-diazepan-1-yl)-2-methoxyphenyl]-3-methyl-1,6-dihydro-7H-pyrazolo[4,3-d]pyrimidin-7-one] | ≥ 8.00
19 | COc1cc(N2CCCN(C(C)=O)CC2)ccc1-c1nc2c(C)nn(C3CCCCC3)c2c(=O)[nH]1 [Example 126, 5-[4-(4-Acetyl-1,4-diazepan-1-yl)-2-methoxyphenyl]-1-cyclohexyl-3-methyl-1,6-dihydro-7H-pyrazolo[4,3-d]pyrimidin-7-one] | ≥ 6.00
20 | CCN1CCCN(c2ccc(-c3nc4c(C)nn(C5CCCCC5)c4c(=O)[nH]3)c(OC)c2)CC1 [Example 127, 1-Cyclohexyl-5-[4-(4-ethyl-1,4-diazepan-1-yl)-2-methoxyphenyl]-3-methyl-1,6-dihydro-7H-pyrazolo[4,3-d]pyrimidin-7-one] | ≥ 6.00
21 | CNC1CCN(c2cc(OC)c(-c3nc4c(C)nn(C5CCCCC5)c4c(=O)[nH]3)cc2F)CC1 [Example 129, 1-Cyclohexyl-5-{5-fluoro-2-methoxy-4-[4-(methylamino)-1-piperidinyl]phenyl}-3-methyl-1,6-dihydro-7H-pyrazolo[4,3-d]pyrimidin-7-one] | ≥ 6.00
22 | CCOc1cc(N2CCCN(C)CC2)ccc1-c1nc2c(C)nn(C3CCCCC3)c2c(=O)[nH]1 [Example 130, 1-Cyclohexyl-5-[4-(4-methyl-1,4-diazepan-1-yl)-2-ethoxyphenyl]-3-methyl-1,6-dihydro-7H-pyrazolo[4,3-d]pyrimidin-7-one] | ≥ 6.00
